Assay results: patent US12365692B2, “6-hydroxy-8-oxatricyclo[3.2.1.02,4]octane-2-carboxamide derivatives for inducing chondrogenesis for treating joint damage” (NOVARTIS AG, priority 2018, dated 2025)

Tested on: ALP in NHAC (normal human articular chondrocytes)
Test: Alkaline Phosphatase (ALP) activity assay: ALP staining and quantitation in NHACs (prevention of chondrocyte hypertrophy)
Type: cell-based
Settings: Chondrocyte, 288 h, human IL-1 beta 10 ng/mL, 12 days; for IC50: Fast Blue RR staining, high content imaging; for Emax: read-out: ALP in NHAC (% Efficacy)
Protocol: The compounds of the present invention were evaluated in the Alkaline Phosphatase (ALP) activity assay to determine the ability of the compounds to prevent chondrocyte hypertrophy in normal human articular chondrocytes (NHACs).
Normal human articular chondrocytes (NHACs) were purchased from PromoCell (Heidelberg, Germany) and grown in Chondrocyte Growth Medium (CGM; Lonza, Walkersville, Md.).
NHACs were expanded in Chondrocyte Growth Medium (CGM) from Lonza until they reached a 60-80% confluency. To initiate differentiation, 7,500 cells were plated/well with indicated test compound dose in 384-well Cell Carrier Ultra plates (Perkin Elmer) with DMEM (SH30022—HyClone) containing 10% FBS (35-015-CV—Corning), 1% Pen/Strep antibiotics (SV30010—HyClone), and 1% Normocin (50 mg/mL—InvivoGen). Cells with test compounds were incubated at 37° C., 5% CO2 for 5 hours and then added human IL-1 beta (AF-200-1B—Peprotech) to each well at a final concentration of 10 ng/mL and incubated at 37° C., 5% CO2 for 12 days.
To detect the presence of hypertrophic cells, NHACs were fixed with 4% paraformaldehyde and Hoechst 33342 (Invitrogen) dye for 30 minutes, rinsed in PBS, then stained with Fast Blue RR Salt (F0500—Sigma) with Naphthol AS-MX Phosphate Alkaline Solution, 0.25% (855—Sigma-Aldrich).
The staining was imaged by fluoresecent microscopy, using the 561 nm wavelength, and/or quantified by high content imaging with the ImageXpress Confocal (Molecular Devices, Sunnyvale, CA). Data analyses were performed with a customized multiwavelength cell-scoring application The activity of the compounds of the present invention in the ALP assay is summarized in Table 2.

Structure (SMILES)	IC50 [µM]	Emax [%]
O=C(Nc1cc(C(F)(F)F)ccn1)[C@]12C[C@@]1(c1ccnc(F)c1)[C@H]1O[C@@H]2C[C@@H]1O (racemic) [Example 1, rac-(1R,2R,4S,5R,6S)-4-(2-fluoropyridin-4-yl)-6-hydroxy-N-(4-(trifluoromethyl)pyridin-2-yl)-8-oxatricyclo[3.2.1.02,4]octane-2-carboxamide]	> 30	28
O=C(Nc1ccc(C(F)(F)F)c(F)c1)[C@]12C[C@@]1(c1ccnc(F)c1)[C@H]1O[C@@H]2C[C@@H]1O (racemic) [Example 2, rac-(1R,2R,4S,5R,6S)-N-(3-fluoro-4-(trifluoromethyl)phenyl)-4-(2-fluoropyridin-4-yl)-6-hydroxy-8-oxatricyclo[3.2.1.02,4]octane-2-carboxamide]	> 30	28
O=C(Nc1ccc(C(F)(F)F)c(Cl)c1)[C@]12C[C@@]1(c1ccnc(F)c1)[C@H]1O[C@@H]2C[C@@H]1O (racemic) [Example 3, rac-(1R,2R,4S,5R,6S)—N-(3-chloro-4-(trifluoromethyl)phenyl)-4-(2-fluoropyridin-4-yl)-6-hydroxy-8-oxatricyclo[3.2.1.02,4]octane-2-carboxamide]	12	71
O=C(Nc1cc(C(F)(F)F)cc(Cl)n1)[C@]12C[C@@]1(c1ccnc(F)c1)[C@H]1O[C@@H]2C[C@@H]1O (racemic) [Example 4, rac-(1R,2R,4S,5R,6S)—N-(6-chloro-4-(trifluoromethyl)pyridin-2-yl)-4-(2-fluoropyridin-4-yl)-6-hydroxy-8-oxatricyclo[3.2.1.02,4]octane-2-carboxamide]	> 30	0
O=C(Nc1cc(C(F)(F)F)c(Cl)cn1)[C@]12C[C@@]1(c1ccnc(F)c1)[C@H]1O[C@@H]2C[C@@H]1O (racemic) [Example 5, rac-(1R,2R,4S,5R,6S)-N-(5-chloro-4-(trifluoromethyl)pyridin-2-yl)-4-(2-fluoropyridin-4-yl)-6-hydroxy-8-oxatricyclo[3.2.1.02,4]octane-2-carboxamide]	> 30	38
O=C(Nc1cc(C(F)(F)F)cc(C2CC2)n1)[C@]12C[C@@]1(c1ccnc(F)c1)[C@H]1O[C@@H]2C[C@@H]1O (racemic) [Example 6, rac-(1R,2R,4S,5R,6S)—N-(6-cyclopropyl-4-(trifluoromethyl)pyridin-2-yl)-4-(2-fluoropyridin-4-yl)-6-hydroxy-8-oxatricyclo[3.2.1.02,4]octane-2-carboxamide]	> 30	9
Cc1cc(C(F)(F)F)cc(NC(=O)[C@]23C[C@@]2(c2ccnc(F)c2)[C@H]2O[C@@H]3C[C@@H]2O)n1 (racemic) [Example 7, rac-(1R,2R,4S,5R,6S)-4-(2-fluoropyridin-4-yl)-6-hydroxy-N-(6-methyl-4-(trifluoromethyl)pyridin-2-yl)-8-oxatricyclo[3.2.1.02,4]octane-2-carboxamide]	> 30	0
CCOc1cc(C(F)(F)F)cc(NC(=O)[C@]23C[C@@]2(c2ccnc(F)c2)[C@H]2O[C@@H]3C[C@@H]2O)n1 (racemic) [Example 8, rac-(1R,2R,4S,5R,6S)—N-(6-ethoxy-4-(trifluoromethyl)pyridin-2-yl)-4-(2-fluoropyridin-4-yl)-6-hydroxy-8-oxatricyclo[3.2.1.02,4]octane-2-carboxamide]	> 30	26
O=C(Nc1cccc(C(F)(F)F)c1)[C@]12C[C@@]1(c1ccnc(F)c1)[C@H]1O[C@@H]2C[C@@H]1O (racemic) [Example 9, rac-(1R,2R,4S,5R,6S)-4-(2-fluoropyridin-4-yl)-6-hydroxy-N-(3-(trifluoromethyl)phenyl)-8-oxatricyclo[3.2.1.02,4]octane-2-carboxamide]	> 30	32
Cc1c(NC(=O)[C@]23C[C@@]2(c2ccnc(F)c2)[C@H]2O[C@@H]3C[C@@H]2O)cccc1C(F)(F)F (racemic) [Example 10, rac-(1R,2R,4S,5R,6S)-4-(2-fluoropyridin-4-yl)-6-hydroxy-N-(2-methyl-3-(trifluoromethyl)phenyl)-8-oxatricyclo[3.2.1.02,4]octane-2-carboxamide]	> 30	6
Cc1ccc(NC(=O)[C@]23C[C@@]2(c2ccnc(F)c2)[C@H]2O[C@@H]3C[C@@H]2O)cc1C(F)(F)F (racemic) [Example 11, rac-(1R,2R,4S,5R,6S)-4-(2-fluoropyridin-4-yl)-6-hydroxy-N-(4-methyl-3-(trifluoromethyl)phenyl)-8-oxatricyclo[3.2.1.02,4]octane-2-carboxamide]	> 30	0
Cc1cc(NC(=O)[C@]23C[C@@]2(c2ccnc(F)c2)[C@H]2O[C@@H]3C[C@@H]2O)cc(C(F)(F)F)c1 (racemic) [Example 12, rac-(1R,2R,4S,5R,6S)-4-(2-fluoropyridin-4-yl)-6-hydroxy-N-(3-methyl-5-(trifluoromethyl)phenyl)-8-oxatricyclo[3.2.1.02,4]octane-2-carboxamide]	> 30	21
Cc1ccc(C(F)(F)F)cc1NC(=O)[C@]12C[C@@]1(c1ccnc(F)c1)[C@H]1O[C@@H]2C[C@@H]1O (racemic) [Example 13, rac-(1R,2R,4S,5R,6S)-4-(2-fluoropyridin-4-yl)-6-hydroxy-N-(2-methyl-5-(trifluoromethyl)phenyl)-8-oxatricyclo[3.2.1.02,4]octane-2-carboxamide]	> 30	40
O=C(Nc1cccc(C(F)(F)F)c1F)[C@]12C[C@@]1(c1ccnc(F)c1)[C@H]1O[C@@H]2C[C@@H]1O (racemic) [Example 14, rac-(1R,2R,4S,5R,6S)—N-(2-fluoro-3-(trifluoromethyl)phenyl)-4-(2-fluoropyridin-4-yl)-6-hydroxy-8-oxatricyclo[3.2.1.02,4]octane-2-carboxamide]	> 30	8
O=C(Nc1ccc(F)c(C(F)(F)F)c1)[C@]12C[C@@]1(c1ccnc(F)c1)[C@H]1O[C@@H]2C[C@@H]1O (racemic) [Example 15, rac-(1R,2R,4S,5R,6S)—N-(4-fluoro-3-(trifluoromethyl)phenyl)-4-(2-fluoropyridin-4-yl)-6-hydroxy-8-oxatricyclo[3.2.1.02,4]octane-2-carboxamide]	> 30	5
O=C(Nc1cc(F)cc(C(F)(F)F)c1)[C@]12C[C@@]1(c1ccnc(F)c1)[C@H]1O[C@@H]2C[C@@H]1O (racemic) [Example 16, rac-(1R,2R,4S,5R,6S)—N-(3-fluoro-5-(trifluoromethyl)phenyl)-4-(2-fluoropyridin-4-yl)-6-hydroxy-8-oxatricyclo[3.2.1.02,4]octane-2-carboxamide]	> 30	34
O=C(Nc1cc(C(F)(F)F)ccc1F)[C@]12C[C@@]1(c1ccnc(F)c1)[C@H]1O[C@@H]2C[C@@H]1O (racemic) [Example 17, rac-(1R,2R,4S,5R,6S)—N-(2-fluoro-5-(trifluoromethyl)phenyl)-4-(2-fluoropyridin-4-yl)-6-hydroxy-8-oxatricyclo[3.2.1.02,4]octane-2-carboxamide]	> 30	17
O=C(Nc1ccc(Cl)c(C(F)(F)F)c1)[C@]12C[C@@]1(c1ccnc(F)c1)[C@H]1O[C@@H]2C[C@@H]1O (racemic) [Example 18, rac-(1R,2R,4S,5R,6S)—N-(4-chloro-3-(trifluoromethyl)phenyl)-4-(2-fluoropyridin-4-yl)-6-hydroxy-8-oxatricyclo[3.2.1.02,4]octane-2-carboxamide]	> 30	25
O=C(Nc1cc(Cl)cc(C(F)(F)F)c1)[C@]12C[C@@]1(c1ccnc(F)c1)[C@H]1O[C@@H]2C[C@@H]1O (racemic) [Example 19, rac-(1R,2R,4S,5R,6S)—N-(3-chloro-5-(trifluoromethyl)phenyl)-4-(2-fluoropyridin-4-yl)-6-hydroxy-8-oxatricyclo[3.2.1.02,4]octane-2-carboxamide]	> 30	0
COc1cc([C@@]23C[C@]2(C(=O)Nc2cc(C(F)(F)F)ccn2)[C@H]2C[C@H](O)[C@@H]3O2)ccn1 (racemic) [Example 20, rac-(1R,2R,4S,5R,6S)-6-hydroxy-4-(2-methoxypyridin-4-yl)-N-(4-(trifluoromethyl)pyridin-2-yl)-8-oxatricyclo[3.2.1.02,4]octane-2-carboxamide]	> 30	24
COc1cc([C@@]23C[C@]2(C(=O)Nc2cc(C(F)(F)F)cc(Cl)n2)[C@H]2C[C@H](O)[C@@H]3O2)ccn1 (racemic) [Example 21, rac-(1R,2R,4S,5R,6S)—N-(6-chloro-4-(trifluoromethyl)pyridin-2-yl)-6-hydroxy-4-(2-methoxypyridin-4-yl)-8-oxatricyclo[3.2.1.02,4]octane-2-carboxamide]	> 30	0
